Data on two compounds can be found in patent US20070054943A1, “Therapeutic agent for keratoconjunctival disorder” (SANTEN PHARMACEUTICAL CO., LTD., priority 2004, published 2007).

This assay deals with corneal disorder models. In words: Test for therapeutic effect on corneal damage (corneal disorder models, exorbital lacrimal gland removal, fluorescein staining score). The settings on record: for Improvement ratio (%): {(control)-(compound)}/{(control)-(normal eye)}x100; for Mean value of total scores: fluorescein staining score (0-3 each for upper, middle, lower cornea), mean of 8 cases, normal eye 2.9, control 6.1; for effect on corneal damage (in words): rat corneal disorder models, instillation of rosiglitazone 0.02% or pioglitazone hydrochloride 0.01%, 6 times a day for 14 days. The class given is in vivo, male SD rats. The procedure: Test For Therapeutic Effect On Corneal Damage
Using male SD rats, in accordance with the method of Fujihara et al. (Invest. Ophthalmol. Vis. Sci. 42 (1) 96-100 (2001)), corneal disorder models were produced. After the production of the corneal disorder models, the improvement ratio of a corneal damage was evaluated by a method (Journal of the eye 21 (1) : 87-90 (2004)) modified from the method of Miyata et al. (Japanese Review of Clinical Ophthalmology 48 (2) : 183-188 (1994)).
A male SD rat was systemically anesthetized by an administration of Nembutal. Subsequently the exorbital lacrimal gland was removed and a corneal damage was induced over a period of 2 months.
Then, the present compound (rosiglitazone or pioglitazone hydrochloride) was administered as follows.
A physiological saline solution of rosiglitazone (0.02%) was instilled into both eyes 6 times a day for 14 days (one group consisting of 8 animals).
A physiological saline solution of pioglitazone hydrochloride (0.01%) was instilled into both eyes 6 times a day for 14 days (one group consisting of 8 animals).
In a control group, physiological saline was instilled into both eyes 6 times a day for 14 days (one group consisting of 8 animals).
Fourteen days after the start of instillation, the damaged parts of the cornea were stained with fluorescein. For each of the upper, middle and lower parts of the cornea, the degree of fluorescein staining was evaluated by scoring according to the criteria shown below and the improvement ratio of corneal damage was calculated from the mean value of the total scores for each of the above-mentioned parts.
• 0: No punctate staining • 1: Scattered staining (punctate staining being separated) • 2: Moderate staining (a part of punctate staining being adjacent) • 3: Heavy staining (punctate staining being barely separated) (Results)
By taking the mean value of the total scores for the control group (physiological saline) as a standard (improvement ratio: 0%) and according to the calculation formula shown below, the improvement ratios for rosiglitazone (0.02%) instillation group and pioglitazone (0.01%) instillation group were calculated, which are shown in Table 1. The mean value of the scores is a mean of those of 8 cases, respectively. Improvement ratio(%)={(control)−(the present compound)}/damage degree×100
Damage degree=(control)−(normal eye)

Setting [1] is: 0.02% in physiological saline instilled into both eyes 6 times a day for 14 days.
The mark [2] stands for this setting: 0.01% (pioglitazone hydrochloride) in physiological saline instilled into both eyes 6 times a day for 14 days.

“Also recorded” adds a separate entry of the source.

With `CN(CCOc1ccc(CC2SC(=O)NC2=O)cc1)c1ccccn1` (stereo not shown) [Rosiglitazone, 5-[p-[2-(methyl-2-pyridylamino)ethoxy]benzyl]-2,4-thiazolidinedione], the “effect on corneal damage (in words)” value is listed as “excellent improving effect; also recorded: significantly improve a corneal damage”. Also, under setting [1], the “Improvement ratio (%)” value is 68.7% and the “Mean value of total scores” value amounted to 3.9.
On to `CCc1ccc(CCOc2ccc(CC3SC(=O)NC3=O)cc2)nc1` (stereo not shown) [Pioglitazone, 5-[[4-[2-(5-ethyl-2-pyridinyl)ethoxy]phenyl]methyl]-2,4-thiazolidinedione], for which, under setting [2], the “Improvement ratio (%)” value is on record as 62.5% and the “Mean value of total scores” value was determined as 4.1. For the same compound, for the setting “listed as pioglitazone”, the “effect on corneal damage (in words)” value is listed as “significantly improve a corneal damage”. In addition, for the setting “listed as pioglitazone hydrochloride”, the “effect on corneal damage (in words)” value is recorded as “excellent improving effect”.
